In US10167279B2 (NOVARTIS AG, priority 2014, dated 2019):

molecular target: C-Raf FL (Homo sapiens (Human), UniProt P04049, Y340E/Y341E); assay: In vitro Raf activity determination (Alpha Screen, phospho-MEK), C-Raf FL (full length, Y340E/Y341E); assay type: biochemical; settings: ATP 1 μM; 60 min pre-incubation; 1 hour reaction; column head does not say FL or TR
Excerpt: The activity of a compound according to the present invention can be assessed by well-known in vitro & in vivo methods. Raf inhibition data provided herein was obtained using the following procedures.
Sf9 cells co-expressing both proteins were lysed and subjected to immobilized nickel chromatography and eluted with Imidazole. A second column (StrepII binding column) was used and eluted with desthiobiotin. Protein Tags were removed using Prescission enzyme and the protein was further purified using a flowthrough step to remove tags.
C-Raf TR refers to a truncated C-Raf protein, a Δ1-324 deletion mutant. C-Raf FL refers to the full-length C-Raf protein.
Full length MEK1 with an inactivating K97R ATP binding site mutation is utilized as a RAF substrate. The MEK1 cDNA was subcloned with an N-terminal (his)6 tag into a vector for E. Coli expression. The MEK1 substrate was purified from E. Coli lysate by nickel affinity chromatography followed by anion exchange. The final MEK1 preparation was biotinylated (Pierce EZ-Link Sulfo-NHS-LC-Biotin) and concentrated.
Assay protocol: Raf and biotinylated Mek (kinase dead) were combined at 2× final concentrations in assay buffer (50 mM Tris, pH 7.5, 15 mM MgCl2, 0.01% BSA and 1 mM DTT) and dispensed […] per well in assay plates (Greiner white 384 well assay plates #781207) containing […] of 40× of a Raf kinase inhibitor test compound diluted in 100% DMSO. The plate was incubated for 60 minutes at room temperature. […] The reactions were stopped and the phosphorylated product was measured using a rabbit anti-p-MEK (Cell Signaling, #9121) antibody and the Alpha Screen IgG (ProteinA) detection Kit (PerkinElmer #6760617R), by the addition of […] to the well of a mixture of the antibody (1:2000 dilution) and detection beads (1:2000 dilution of both beads) in Stop/bead buffer (25 mM EDTA, 50 mM Tris, pH 7.5, 0.01% Tween20). The additions were carried out under dark conditions to protect the detection beads from light. A lid was placed on top of the plate and incubated for 1 hour at room temperature, after which the luminescence was read on a PerkinElmer Envision instrument. The concentration of each compound for 50% inhibition (IC50) was calculated by non-linear regression using XL Fit data analysis software.

C-Raf FL, sequence (P04049 whole entry Y340E/Y341E): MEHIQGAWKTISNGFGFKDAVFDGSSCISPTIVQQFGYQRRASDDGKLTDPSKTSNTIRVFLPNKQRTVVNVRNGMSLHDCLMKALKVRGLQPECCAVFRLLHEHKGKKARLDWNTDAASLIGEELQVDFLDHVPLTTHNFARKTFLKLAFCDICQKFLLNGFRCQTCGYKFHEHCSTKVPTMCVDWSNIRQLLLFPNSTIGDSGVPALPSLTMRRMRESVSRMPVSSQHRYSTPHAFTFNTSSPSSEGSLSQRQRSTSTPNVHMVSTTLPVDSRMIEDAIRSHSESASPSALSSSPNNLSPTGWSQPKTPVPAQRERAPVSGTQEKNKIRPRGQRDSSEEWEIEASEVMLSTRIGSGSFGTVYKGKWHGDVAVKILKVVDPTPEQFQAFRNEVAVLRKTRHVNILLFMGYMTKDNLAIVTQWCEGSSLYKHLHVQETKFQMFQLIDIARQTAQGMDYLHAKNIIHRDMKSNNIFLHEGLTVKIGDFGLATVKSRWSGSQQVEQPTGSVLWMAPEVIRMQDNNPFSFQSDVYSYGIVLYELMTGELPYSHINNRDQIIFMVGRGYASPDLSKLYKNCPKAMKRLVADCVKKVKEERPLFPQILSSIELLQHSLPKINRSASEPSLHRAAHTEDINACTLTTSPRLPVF
C-Raf FL, sequence (P63104 whole entry partner): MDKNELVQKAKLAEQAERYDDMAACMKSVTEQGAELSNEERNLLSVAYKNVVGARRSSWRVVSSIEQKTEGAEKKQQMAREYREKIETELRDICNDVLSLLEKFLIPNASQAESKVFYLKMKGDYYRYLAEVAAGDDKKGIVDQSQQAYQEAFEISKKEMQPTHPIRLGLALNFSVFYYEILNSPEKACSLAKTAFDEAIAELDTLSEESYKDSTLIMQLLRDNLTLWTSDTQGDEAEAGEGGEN

| IC50 | SMILES |
| --- | --- |
| 0.1 nM | Cc1ccc(NC(=O)c2cncc(C(F)(F)F)c2)cc1-c1cc(OCCO)nc(C2CCOCC2)c1 [Example 265, N-(3-(2-(2-hydroxyethoxy)-6-(tetrahydro-2H-pyran-4-yl)pyridin-4-yl)-4-methylphenyl)-5-(trifluoromethyl) nicotinamide] |
| 51.5 nM | Cc1ncc(NC(=O)c2cccc(C(F)(F)F)c2)cc1-c1cc(C2(F)COC2)c(=O)n(CCO)c1 [Example 46, N-(5′-(3-fluorooxetan-3-yl)-1′-(2-hydroxyethyl)-2-methyl-6′-oxo-1′,6′-dihydro-[3,3′-bipyridin]-5-yl)-3-(trifluoromethyl)benzamide] |
| 0.331 nM | Cc1ccc(NC(=O)c2cccc(C(F)(F)F)c2)cc1-c1cc(NCCO)nc(C2CCOCC2)c1 [Example 174] |
| 0.3 nM | Cc1ccc(NC(=O)c2ccnc(C(F)(F)F)c2)cc1-c1cc(OCCO)nc(C2(CF)CCOCC2)c1 [Example 210] |
| 0.684 nM | Cc1ccc(NC(=O)c2ccnc(C(F)(F)F)c2)cc1-c1cc(C2CCOCC2)nc(N2CCC(O)CC2)c1 [Example 187, N-(3-(2-(4-hydroxypiperidin-1-yl)-6-(tetrahydro-2H-pyran-4-yl)pyridin-4-yl)-4-methylphenyl)-2-(trifluoromethyl) isonicotinamide] |
| 9.2 nM | COc1ncc(-c2cc(NC(=O)c3cc(C(F)(F)F)cc(C(C)(C)N)n3)cnc2C)cc1C1(C(F)F)COC1 [Example 148, 6-(2-aminopropan-2-yl)-N-(5′-(3-(difluoromethyl)oxetan-3-yl)-6′-methoxy-2-methyl-[3,3′-bipyridin]-5-yl)-4-(trifluoromethyl)picolin-amide] |
| 1.53 nM | Cc1ncc(NC(=O)c2cccc(C(F)(F)F)c2)cc1-c1cc(NCCO)nc(C2(O)CCOCC2)c1 [Example 302, N-(2′-((2-hydroxyethyl)amino)-6′-(4-hydroxytetrahydro-2H-pyran-4-yl)-2-methyl-[3,4′-bipyridin]-5-yl)-3-(trifluoromethyl) benzamide] |
| 0.2 nM | Cc1ccc(NC(=O)c2cc(C(F)(F)F)ccn2)cc1-c1cc(OC[C@@H](O)CO)nc(C2CCOCC2)c1 [Example 284] |
| 4.51 nM | CCOc1ncc(-c2cc(NC(=O)c3cc(C(F)(F)F)cc(C(C)(C)N)n3)ccc2C)cc1C1(O)COC1 [Example 147, 6-(2-aminopropan-2-yl)-N-(3-(6-ethoxy-5-(3-hydroxyoxetan-3-yl)pyridin-3-yl)-4-methylphenyl)-4-(trifluoromethyl)picolin-amide] |
| 0.4 nM | Cc1ccc(NC(=O)c2ccnc(C(F)(F)F)c2)cc1-c1cc2c(c(C3CCOCC3)c1)OC(C)(C)C(=O)N2 [Example 196, N-(3-(2,2-dimethyl-3-oxo-8-(tetrahydro-2H-pyran-4-yl)-3,4-dihydro-2H-benzo[b][1,4]oxazin-6-yl)-4-methylphenyl)-2-(trifluoromethyl) isonicotinamide] |
| 0.3 nM | CCOc1ncc(-c2cc(NC(=O)c3ccnc(C(F)(F)F)c3)ccc2C)cc1C1(C#N)CCOC1 (stereo not drawn) [Example 168, N-(3-(5-(3-cyanotetrahydrofuran-3-yl)-6-ethoxypyridin-3-yl)-4-methylphenyl)-2-(trifluoromethyl) isonicotinamide] |
| 0.06 nM | CCOc1nnc(-c2cc(NC(=O)c3cc(C(F)(F)F)c(Cl)cn3)ccc2C)cc1C1CCOCC1 [Example 228, 5-chloro-N-(3-(6-ethoxy-5-(tetrahydro-2H-pyran-4-yl)pyridazin-3-yl)-4-methylphenyl)-4-(trifluoromethyl) picolinamide] |
| 0.08 nM | COC1(c2cc(-c3cc(NC(=O)c4cccc(C(F)(F)F)c4)cnc3C)cc(NCCO)n2)COC1 [Example 152, N-(2′-((2-hydroxyethyl)amino)-6′-(3-methoxyoxetan-3-yl)-2-methyl-[3,4′-bipyridin]-5-yl)-3-(trifluoromethyl)benzamide] |
| 0.605 nM | Cc1ccc(NC(=O)c2ccnc(C(F)(F)F)c2)cc1-c1cc(C2(O)COC2)cc(C2(F)COC2)c1 [Example 135, N-(3′-(3-fluorooxetan-3-yl)-5′-(3-hydroxyoxetan-3-yl)-6-methyl-[1,1′-biphenyl]-3-yl)-2-(trifluoromethyl)isonicotin-amide] |
| 0.7 nM | Cc1nc2cc(C3CCOCC3)cc(-c3cc(NC(=O)c4ccnc(C(F)(F)F)c4)ccc3C)c2[nH]1 [Example 220, N-(4-methyl-3-(2-methyl-5-(tetrahydro-2H-pyran-4-yl)-1H-benzo[d]imidazol-7-yl)phenyl)-2-(trifluoromethyl) isonicotinamide] |
| 0.1 nM | Cc1ccc(NC(=O)c2ccnc(C(F)(F)F)c2)cc1-c1cc(OCCO)nc(C2(CO)CCOCC2)c1 [Example 215] |
| 0.04 nM | Cc1ccc(NC(=O)c2ccnc(C(F)(F)F)c2)cc1-c1cc(C2CCOCC2)c(N[C@H](C)CO)nn1 [Example 310, (R)-N-(3-(6-((1-hydroxypropan-2-yl)amino)-5-(tetrahydro-2H-pyran-4-yl)pyridazin-3-yl)-4-methylphenyl)-2-(trifluoromethyl) isonicotinamide] |
| 0.08 nM | COCCNc1nnc(-c2cc(NC(=O)c3ccnc(C(F)(F)F)c3)ccc2C)cc1C1CCOCC1 [Example 307, N-(3-(6-((2-methoxyethyl)amino)-5-(tetrahydro-2H-pyran-4-yl)pyridazin-3-yl)-4-methylphenyl)-2-(trifluoromethyl)isonicotinamide] |
| 2 nM | CCOc1nnc(-c2cc(NC(=O)c3ccnc(C(C)(C)F)c3)cnc2C)cc1C1CCOCC1 [Example 233, N-(5-(6-ethoxy-5-(tetrahydro-2H-pyran-4-yl)pyridazin-3-yl)-6-methylpyridin-3-yl)-2-(2-fluoropropan-2-yl) isonicotinamide] |
| 0.05 nM | Cc1ccc(NC(=O)c2cc(C(F)(F)F)ccn2)cc1-c1cc(OCCO)nc(C2CCOCC2)c1 [Example 272, N-(3-(2-(2-hydroxyethoxy)-6-(tetrahydro-2H-pyran-4-yl)pyridin-4-yl)-4-methylphenyl)-4-(trifluoromethyl) picolinamide] |
| 0.1 nM | Cc1ccc(NC(=O)NCCC(C)(C)C)cc1-c1cc(OCCO)nc(C2CCOCC2)c1 [Example 319, 1-(3,3-dimethylbutyl)-3-(3-(2-(2-hydroxyethoxy)-6-(tetrahydro-2H-pyran-4-yl)pyridin-4-yl)-4-methylphenyl)urea] |
| 0.951 nM | CCC(F)(F)c1cc(C(=O)Nc2cnc(C)c(-c3cc(NCCO)nc(C4CCOCC4)c3)c2)ccn1 [Example 182, 2-(1,1-difluoropropyl)-N-(2′-((2-hydroxyethyl)amino)-2-methyl-6′-(tetrahydro-2H-pyran-4-yl)-[3,4′-bipyridin]-5-yl) isonicotinamide] |
| 0.04 nM | CCOc1nnc(-c2cc(NC(=O)c3ccnc(C(F)(F)F)c3)ccc2C)cc1C1CCOCC1 [Example 239, N-(3-(6-ethoxy-5-(tetrahydro-2H-pyran-4-yl)pyridazin-3-yl)-4-methylphenyl)-2-(trifluoromethyl) isonicotinamide] |
| 1 nM | Cc1ccc(NC(=O)c2ccnc(C(C)(F)F)c2)cc1-c1c[nH]c(=O)c(C2(O)COC2)c1 [Example 13, 2-(1,1-difluoroethyl)-N-(3-(5-(3-hydroxyoxetan-3-yl)-6-oxo-1,6-dihydropyridin-3-yl)-4-methylphenyl)isonicotinamide] |
| 0.08 nM | Cc1ccc(NC(=O)c2cc(C(F)(F)F)ncn2)cc1-c1cc(OCCO)nc(C2CCOCC2)c1 [Example 260, N-(3-(2-(2-hydroxyethoxy)-6-(tetrahydro-2H-pyran-4-yl)pyridin-4-yl)-4-methylphenyl)-6-(trifluoromethyl) pyrimidine-4-carboxamide] |
| 0.07 nM | Cc1ccc(NC(=O)c2cc(C(F)(F)F)ccn2)cc1-c1cc(OC[C@H](O)CO)nc(C2CCOCC2)c1 [Example 283, (R)-N-(3-(2-(2,3-dihydroxypropoxy)-6-(tetrahydro-2H-pyran-4-yl)pyridin-4-yl)-4-methylphenyl)-4-(trifluoromethyl) picolinamide] |
| 1 nM | Cc1ccc(NC(=O)c2cnnc(C(F)(F)F)c2)cc1-c1cc(OCCO)nc(C2CCOCC2O)c1 (stereo not drawn) [Example 245] |
| 0.136 nM | Cc1ccc(NC(=O)c2cccc(C(F)(F)F)c2)cc1-c1cc(C2CCOCC2)nc(N(CCO)CCO)c1 [Example 178] |
| 0.4 nM | Cc1ncc(NC(=O)c2cccc(C(F)(F)F)c2)cc1-c1cc(C2(C)COC2)c(OCCO)nn1 [Example 16, N-(5-(6-(2-hydroxyethoxy)-5-(3-methyloxetan-3-yl)pyridazin-3-yl)-6-methylpyridin-3-yl)-3-(trifluoromethyl)benzamide] |
| 0.2 nM | Cc1ccc(NC(=O)c2ccnc(C(F)(F)F)c2)cc1-c1cc(C2(C)COC2)c(OCCO)nn1 [Example 14, N-(3-(6-(2-hydroxyethoxy)-5-(3-methyloxetan-3-yl)pyridazin-3-yl)-4-methylphenyl)-2-(trifluoromethyl)isonicotinamide] |
